Measurements taken from patent US20250268903A1, “RXFP1 AGONISTS” (BRISTOL-MYERS SQUIBB COMPANY, priority 2021, published 2025).

These compounds were tested against T1, human RXFP1 (Homo sapiens, UniProt Q9HBX9) (assay: hRXFP1 HEK293 cAMP assay (HTRF)). Conditions: HEK293 cells stably expressing human RXFP1, 30 min at room temperature.
T1 construct: expressed in transfected cells
T1 sequence (Q9HBX9 1-757): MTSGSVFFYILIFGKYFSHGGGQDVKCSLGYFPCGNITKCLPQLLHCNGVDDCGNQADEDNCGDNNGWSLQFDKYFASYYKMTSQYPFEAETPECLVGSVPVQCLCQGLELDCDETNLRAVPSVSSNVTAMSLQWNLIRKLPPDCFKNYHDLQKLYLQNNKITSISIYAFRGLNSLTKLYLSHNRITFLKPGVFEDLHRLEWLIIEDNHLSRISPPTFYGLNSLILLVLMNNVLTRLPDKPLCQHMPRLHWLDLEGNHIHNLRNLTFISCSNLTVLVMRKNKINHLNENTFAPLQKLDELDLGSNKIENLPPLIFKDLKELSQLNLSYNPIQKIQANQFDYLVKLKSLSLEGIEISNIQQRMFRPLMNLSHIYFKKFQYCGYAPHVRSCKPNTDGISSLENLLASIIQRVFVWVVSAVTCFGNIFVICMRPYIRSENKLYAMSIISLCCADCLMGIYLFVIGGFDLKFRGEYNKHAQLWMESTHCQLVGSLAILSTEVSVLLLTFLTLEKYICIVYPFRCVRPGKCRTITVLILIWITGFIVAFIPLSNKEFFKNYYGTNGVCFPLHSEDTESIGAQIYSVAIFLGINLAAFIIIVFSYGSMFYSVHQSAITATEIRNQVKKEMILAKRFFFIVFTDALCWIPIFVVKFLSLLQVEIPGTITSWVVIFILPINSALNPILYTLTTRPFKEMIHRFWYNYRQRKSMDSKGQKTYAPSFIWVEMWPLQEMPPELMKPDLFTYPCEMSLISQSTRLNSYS
Type: cell-based
In short: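 HEK293 cells stably expressing human RXFP1 were suspended in HBSS (Ca/Mg) with 20 mM HEPES, 0.05% BSA and 0.5 mM IBMX, then treated with compounds (0.010 nM–50 μM, 2% DMSO final) for 30 min at room temperature. Intracellular cAMP was measured by HTRF, and potency was derived from 4-parameter logistic fits.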
Compound “(1R,4R,7Z)-N-14- fluoro-3- (trifluoromethyl) phenyl]-3-[5-(3- hydroxy-3- methylbutyl)-2- methoxybenzamido 1-7-[(oxan-3- yl)methylidene] bicyclo[2.2.1] heptane- 2-carboxamide [Example 266]” has an EC50 of 186 nM. With `COc1c(F)cc(C(=O)NCC2(S(C)(=O)=O)CC2)cc1C(=O)N[C@H]1[C@@H](C(=O)Nc2ccc(F)c(C(F)(F)F)c2)[C@H]2CC[C@@H]1/C2=C\C1CC1` [Example 366, N3-[(1R,2R,3S,4R,7Z)-7-(cyclopropyl-methylidene)-3-{[4-fluoro 3-(trifluoromethyl)phenyl]carbamoyl}bicyclo[2.2.1]heptan-2-yl]-5-fluoro-N1-[(1-methanesulfonyl-cyclopropyl)methyl]-4-methoxybenzene-1,3-dicarboxamide] the EC50 was 3.1 nM. Compound `COc1ccc(COC2(C(=O)NCCO)CC2)cc1C(=O)N[C@@H]1C2CCC(/C2=C/C2CC2)[C@@H]1C(=O)Nc1ccc(F)c(C(F)(F)F)c1` (stereo partly shown) [Example 17] has an EC50 of 121 nM. “4-(3-{[(2R,3S,7Z)- 3-{[4-fluoro-3- (trifluoromethyl)phe- nyl]carbamoyl}-7- (2,2,2- trifluoroethylidene)bi- cyclo[2.2.1]heptan- 2-yl]carbamoyl}-4- methoxyphenyl)cyclo- hexyl N- phenylcarbamate [Example 54]” gave an EC50 of 158 nM. `COc1c(F)cc(C(=O)N2CC3(CC(O)C3)C2)cc1C(=O)N[C@H]1[C@@H](C(=O)Nc2ccc(F)c(C(F)(F)F)c2)[C@H]2CC[C@@H]1/C2=C\C1CCCC1` [Example 371, (1R,2S,3R,4R,7Z)-7-(cyclopentyl-methylidene)-N-[4-fluoro-3-(trifluoromethyl)phenyl]-3-(3-fluoro-5-{6-hydroxy-2-azaspiro[3.3]heptane-2-carbonyl}-2-methoxybenzamido) bicyclo[2.2.1]heptane-2-carboxamide] showed an EC50 of 2.8 nM. With `COc1ccc(/C=C/C(=O)N2CCOCC2)cc1C(=O)N[C@H]1[C@@H](C(=O)Nc2ccc(F)c(C(F)(F)F)c2)[C@H]2CC[C@@H]1/C2=C\C1CC1` [Example 306, (1R,2S,3R,4R,7Z)-7-(cyclopropyl-methylidene)-N-[4-fluoro-3-(trifluoromethyl)phenyl]-3-{2-methoxy-5-[(1E)-3-(morpholin-4-yl)-3-oxoprop-1-en-1-yl]benzamido} bicyclo[2.2.1] heptane-2-carboxamide] the EC50 was 5.26 nM. For `O=C(N[C@@H]1C2CCC(/C2=C/C(F)(F)F)[C@@H]1C(=O)Nc1ccc(F)c(C(F)(F)F)c1)c1cc(CCCO)ccc1OCCO` (stereo partly drawn) [Example 107, (2S,3R,7Z)-N-[4-fluoro-3-(trifluoromethyl)phe-nyl]-3-[2-(2-hydroxyethoxy)-5-(3-hydroxypropyl)benz-amido]-7-(2,2,2-trifluoroethylidene)bi-cyclo[2.2.1]heptane-2-carboxamide], the EC50 was 815 nM. Compound `COC(=O)OCC/C=C/c1ccc(OC)c(C(=O)N[C@H]2[C@@H](C(=O)Nc3ccc(F)c(C(F)(F)F)c3)[C@H]3CC[C@@H]2C3=C(C)C)c1` [Example 33, (E)-4-(3-(((1R,2R,3S,4R)-3-((4-fluoro-3-(trifluoromethyl)phenyl)carbamoyl)-7-(propan-2-ylidene)bicyclo[2.2.1]heptan-2-yl)carbamoyl)-4-methoxyphenyl) but-3-en-1-yl methyl carbonate] has an EC50 of 580 nM. `COc1ccc(CCC(C)(C)O)cc1C(=O)N[C@@H]1C2CCC(/C2=C/C(F)(F)F)[C@@H]1C(=O)Nc1ccc(F)c(C(F)(F)F)c1` (stereo partly shown) [Example 82] was tested, and the EC50 was 125 nM. `COc1ccc(C2CC2C(=O)N2CCC(O)CC2)cc1C(=O)N[C@H]1[C@@H](C(=O)Nc2ccc(F)c(C(F)(F)F)c2)[C@H]2CC[C@@H]1/C2=C\C(F)(F)F` (single isomer, unassigned) [Example 322] showed an EC50 of 331 nM. `C#Cc1ccc(OC)c(C(=O)N[C@@H]2C3CCC(/C3=C/C(F)(F)F)[C@@H]2C(=O)Nc2ccc(F)c(C(F)(F)F)c2)c1` (stereo partly drawn) [Example 75, (2S,3R,7Z)-3-(5-ethynyl-2-methoxybenzamido)-N-[4-fluoro-3-(trifluoromethyl)phe-nyl]-7-(2,2,2-trifluoroethylidene)bi-cyclo[2.2.1]heptane-2-carboxamide] showed an EC50 of 91 nM. `COc1ccc(C2CC3CC(CO)CC32)cc1C(=O)N[C@H]1[C@@H](C(=O)Nc2ccc(F)c(C(F)(F)F)c2)[C@H]2CC[C@@H]1/C2=C\C1CC1` (single isomer, unassigned) [Example 352] was tested, and the EC50 was 49.9 nM. “(1R,4R,7Z)-7- (cyclopentyl- methylidene)- N-[4-fluoro- 3-(trifluoromethyl) phenyl]-3-[5-(3- hydroxy-3- methylbutyl)-2- methoxybenzamido] bicyclo[2.2.1]heptane- 2-carboxamide [Example 260]” gave an EC50 of 324 nM. `COc1ccc(N(Cc2ccccc2)Cc2ccccc2)cc1C(=O)N[C@H]1[C@@H](C(=O)Nc2ccc(F)c(C(F)(F)F)c2)[C@H]2CC[C@@H]1/C2=C\C1CC1` [Example 1, (1R,2S,3R,4R,Z)-7-(cyclopropylmethylene)-3-(5-(dibenzylamino)-2-methoxybenzamido)-N-(4-fluoro-3-(trifluoromethyl)phenyl) bicyclo[2.2.1]heptane-2-carboxamide] showed an EC50 of 675 nM. Work on `COc1ccc(C2CCCCC2)cc1C(=O)N[C@@H]1C2CCC(/C2=C/C(F)(F)F)[C@@H]1C(=O)Nc1ccc(F)c(C(F)(F)F)c1` (stereo partly drawn) [Example 39, (2S,3R,7Z)-3-(5-cyclohexyl-2-methoxybenzamido)-N-[4-fluoro-3-(trifluoromethyl)phenyl]-7-(2,2,2-trifluoroethylidene) bicyclo[2.2.1]heptane-2-carboxamide] yielded an EC50 of 611 nM. Compound `COc1cc(CN2C(=O)CNC2=O)ccc1C(=O)N[C@@H]1C2CCC(/C2=C/C(F)(F)F)[C@@H]1C(=O)Nc1ccc(F)c(C(F)(F)F)c1` (stereo partly drawn) [Example 26, (2S,3R,7Z)-3-{4-[(2,5-dioxoimidazolidin-1-yl)methyl]-2-methoxybenzamido}-N-[4-fluoro-3-(trifluoromethyl)phe-nyl]-7-(2,2,2-trifluoroethylidene)bi-cyclo[2.2.1]heptane-2-carboxamide] has an EC50 of 1380 nM. Compound `COc1ccc(CCCO)cc1C(=O)NC1C2CCC(/C2=C/C2CCCC2)[C@@H]1C(=O)Nc1ccc(F)c(C(F)(F)F)c1` (stereo partly shown) [Example 167, (7Z)-7-(cyclopentylmethyli-dene)-N-[4-fluoro-3-(trifluoromethyl)phe-nyl]-3-[5-(3-hydroxypropyl)-2-methoxybenzamido] bicyclo[2.2.1]heptane-2-carboxamide] has an EC50 of 11 nM. `COc1ccc(/C=C/C(=O)N[C@H]2C[C@@H](O)C2)cc1C(=O)N[C@@H]1C2CCC(/C2=C/C(F)(F)F)[C@@H]1C(=O)Nc1ccc(F)c(C(F)(F)F)c1` (stereo partly drawn) [Example 134, (2S,3R,7Z)-N-[4-fluoro-3-(trifluoromethyl)phe-nyl]-3-{2-methoxy-5-[(1E)-2-{[(1s,3s)-3-hydroxycyclobutyl]car-bamoyl}eth-1-en-1-yl]benzamido}-7-(2,2,2-trifluoroethylidene)bi-cyclo[2.2.1]heptane-2-carboxamide] gave an EC50 of 561 nM. Compound `COc1ccc(S(=O)(=O)Cc2ccccc2)cc1C(=O)N[C@@H]1C2CCC(/C2=C/C(F)(F)F)[C@@H]1C(=O)Nc1ccc(F)c(C(F)(F)F)c1` (stereo partly drawn) [Example 3, (2S,3R,7Z)-N-[4-fluoro-3-(trifluoromethyl)phe-nyl]-3-(2-methoxy-5-phenylmethanesulfo-nylbenzamido)-7-(2,2,2-trifluoroethylidene)bi-cyclo[2.2.1]heptane-2-carboxamide] has an EC50 of 560 nM.
